Where “and” joins values, the source holds several entries; their conditions need not be identical. Equal entries are not always repeated. Toxic doses and inconclusive results are not listed. Rule as the data show it: active = T/C of 150% or more; inactive = T/C below 125%.
Test system: L1210 leukemia ip in BDF1 mice, survival T/C
Assay: NCI In Vivo Anticancer Drug Screen. Data for tumor model L1210 Leukemia (intraperitoneal) in B6D2F1 (BDF1) mice
Details: endpoint: mean survival time, higher = longer survival
Procedure, shortened: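 Each compound was tested against a transplantable tumor grown in mice. The endpoint was survival, with treated animals benchmarked against vehicle controls as a simple ratio.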

[1] = dose: 10.0 mg/kg/injection, schedule: Q01DX009 (ip), vehicle: saline
[2] = dose: 20.0 mg/kg/injection, schedule: Q01DX009 (ip), vehicle: saline
[3] = dose: 40.0 mg/kg/injection, schedule: Q04DX003 (ip), vehicle: saline
[4] = dose: 100.0 mg/kg/injection, schedule: Q01DX001 (ip), vehicle: carboxymethylcellulose (CMC)
[5] = dose: 200.0 mg/kg/injection, schedule: Q01DX001 (ip), vehicle: carboxymethylcellulose (CMC)
[6] = dose: 400.0 mg/kg/injection, schedule: Q01DX001 (ip), vehicle: carboxymethylcellulose (CMC)
[7] = dose: 100.0 mg/kg/injection, schedule: Q01DX001 (ip), vehicle: saline
[8] = dose: 200.0 mg/kg/injection, schedule: Q01DX001 (ip), vehicle: saline
[9] = dose: 400.0 mg/kg/injection, schedule: Q01DX001 (ip), vehicle: saline
[10] = dose: 100.0 mg/kg/injection, schedule: Q04DX002 (ip), vehicle: Klucel (hydroxypropylcellulose) (HPC)
[11] = dose: 200.0 mg/kg/injection, schedule: Q04DX002 (ip), vehicle: Klucel (hydroxypropylcellulose) (HPC)
[12] = dose: 400.0 mg/kg/injection, schedule: Q04DX002 (ip), vehicle: Klucel (hydroxypropylcellulose) (HPC)
[13] = dose: 100.0 mg/kg/injection, schedule: Q04DX003 (ip), vehicle: saline
[14] = dose: 100.0 mg/kg/injection, schedule: Q04DX003 (ip), vehicle: saline with Tween-80
[15] = dose: 200.0 mg/kg/injection, schedule: Q04DX003 (ip), vehicle: saline with Tween-80
[16] = dose: 400.0 mg/kg/injection, schedule: Q04DX003 (ip), vehicle: saline with Tween-80
[17] = dose: 12.5 mg/kg/injection, schedule: Q01DX009 (ip), vehicle: saline with Tween-80
[18] = dose: 25.0 mg/kg/injection, schedule: Q01DX009 (ip), vehicle: saline with Tween-80
[19] = dose: 50.0 mg/kg/injection, schedule: Q01DX009 (ip), vehicle: saline with Tween-80
[20] = dose: 100.0 mg/kg/injection, schedule: Q04DX002 (ip), vehicle: saline
[21] = dose: 200.0 mg/kg/injection, schedule: Q04DX002 (ip), vehicle: saline
[22] = dose: 100.0 mg/kg/injection, schedule: Q04DX003 (ip), vehicle: Klucel (hydroxypropylcellulose) (HPC)
[23] = dose: 200.0 mg/kg/injection, schedule: Q04DX003 (ip), vehicle: Klucel (hydroxypropylcellulose) (HPC)
[24] = dose: 100.0 mg/kg/injection, schedule: Q01DX009 (ip), vehicle: saline with Tween-80
[25] = dose: 200.0 mg/kg/injection, schedule: Q01DX009 (ip), vehicle: saline with Tween-80
[26] = dose: 400.0 mg/kg/injection, schedule: Q01DX009 (ip), vehicle: saline with Tween-80

Measured: T/C

N#[N+]c1ccc2[nH]c3ccccc3c(=O)c2c1
inactive: dose: 5.0 mg/kg/injection, schedule: Q01DX009 (ip), vehicle: saline 105 % of control | dose: 10.0 mg/kg/injection, schedule: Q01DX001 (ip), vehicle: saline 101 % of control | [1] 102 % of control | dose: 10.0 mg/kg/injection, schedule: Q04DX003 (ip), vehicle: saline 94 % of control | dose: 20.0 mg/kg/injection, schedule: Q01DX001 (ip), vehicle: saline 101 % of control | [2] 94 % of control | dose: 20.0 mg/kg/injection, schedule: Q04DX003 (ip), vehicle: saline 97 % of control | dose: 40.0 mg/kg/injection, schedule: Q01DX001 (ip), vehicle: saline 104 % of control | [3] 97 % of control

O=c1oc2ccc([N+](=O)[O-])cc2o1
inactive: dose: 75.0 mg/kg/injection, schedule: Q01DX001 (ip), vehicle: acetone 108 % of control

O=C(O)c1cc(N=Nc2ccc(S(=O)(=O)Nc3nccs3)cc2)ccc1O
inactive: [4] 95 % of control | [5] 95 % of control | [6] 101 % of control

c1cc2c(cc1CCCCCCCCCCc1ccc3c(c1)CCC3)CCC2
inactive: [7] 97 % of control | [8] 97 % of control | [9] 89 % of control

C1CC2CC3OC3CC12 (stereo not given)
inactive: [10] 95 % of control | [11] 92 % of control | [12] 92 % of control

Cc1ccc([N+](=O)[O-])cc1/C=C/C(=O)O
inactive: [13] 106 % of control | dose: 200.0 mg/kg/injection, schedule: Q04DX003 (ip), vehicle: saline 93 % of control | dose: 400.0 mg/kg/injection, schedule: Q04DX003 (ip), vehicle: saline 104 % of control

CSc1ccc2c(c1)N(CCC1CCCCN1C)c1ccccc1S2 (stereo not given)
inactive: dose: 0.78 mg/kg/injection, schedule: Q01DX009 (ip), vehicle: saline 101 % of control | dose: 1.56 mg/kg/injection, schedule: Q01DX009 (ip), vehicle: saline 103 % of control | dose: 3.12 mg/kg/injection, schedule: Q01DX009 (ip), vehicle: saline 94 % of control and 98 % of control | dose: 6.25 mg/kg/injection, schedule: Q01DX009 (ip), vehicle: saline 94 % of control and 101 % of control | dose: 12.5 mg/kg/injection, schedule: Q01DX009 (ip), vehicle: saline 98 % of control and 116 % of control | dose: 25.0 mg/kg/injection, schedule: Q04DX003 (ip), vehicle: saline 103 % of control | dose: 50.0 mg/kg/injection, schedule: Q04DX003 (ip), vehicle: saline 92 % of control

CCOC(=O)c1c(C)c(Br)c(O)c(Br)c1O
inactive: [7] 98 % of control | dose: 100.0 mg/kg/injection, schedule: Q04DX003 (ip), vehicle: other 86 % of control | [8] 91 % of control | dose: 200.0 mg/kg/injection, schedule: Q04DX003 (ip), vehicle: other 100 % of control | [9] 103 % of control | dose: 400.0 mg/kg/injection, schedule: Q04DX003 (ip), vehicle: other 106 % of control

Cc1cccnc1C
inactive: [1] 105 % of control | [2] 111 % of control | dose: 30.0 mg/kg/injection, schedule: Q01DX009 (ip), vehicle: saline 115 % of control | [3] 112 % of control | dose: 80.0 mg/kg/injection, schedule: Q04DX003 (ip), vehicle: saline 107 % of control | [13] 100 % of control

CC(=O)NC(C)(C)C#N
inactive: [10] 93 % of control | [11] 96 % of control | [12] 107 % of control

O=C(/C=C\c1cccc([N+](=O)[O-])c1)c1ccc(F)cc1
inactive: [10] 100 % of control | [11] 94 % of control | [12] 98 % of control

Nc1nc2nn(-c3ccccc3)nc2c(=O)[nH]1
inactive: [14] 100 % of control | [15] 93 % of control | [16] 94 % of control

ClCC1COCO1 (stereo not given)
inactive: [17] 107 % of control | [18] 102 % of control | [19] 106 % of control

CN(C(=O)OCc1ccccc1)c1ccc(C(=O)NC(CCC(=O)O)C(=O)O)cc1 (stereo not given)
inactive: [4] 94 % of control | [5] 102 % of control | [6] 96 % of control

COc1ccc(/C=C2\N=C(c3ccc([N+](=O)[O-])cc3)OC2=O)cc1Br
inactive: [20] 101 % of control | [21] 104 % of control | dose: 400.0 mg/kg/injection, schedule: Q04DX002 (ip), vehicle: saline 115 % of control

CCCCCC(=O)NCC(=O)O
inactive: [14] 94 % of control | [15] 97 % of control | [16] 94 % of control

CC(C)CNS(=O)(=O)c1ccc(Cl)c([N+](=O)[O-])c1
inactive: [22] 99 % of control | [23] 97 % of control | dose: 400.0 mg/kg/injection, schedule: Q04DX003 (ip), vehicle: Klucel (hydroxypropylcellulose) (HPC) 106 % of control

CCC(C(OC(C)=O)C(C)C)[N+](=O)[O-] (stereo not given)
inactive: dose: 9.38 mg/kg/injection, schedule: Q01DX001 (ip), vehicle: other 104 % of control | dose: 18.75 mg/kg/injection, schedule: Q01DX001 (ip), vehicle: other 105 % of control

NCCCN1CCCN=C1C1=NCCCN1CCCN
inactive: [24] 96 % of control | [20] 100 % of control | [14] 109 % of control | [25] 100 % of control | [21] 100 % of control | [15] 98 % of control | [26] 100 % of control | [16] 95 % of control

Fc1cc(F)c(F)c(Oc2c(F)c(F)c(-c3c(F)c(F)c(F)c(F)c3F)c(F)c2F)c1F
inactive: [24] 104 % of control | [25] 90 % of control | [26] 101 % of control

N#CSC/C(Br)=C/Br
inactive: dose: 6.25 mg/kg/injection, schedule: Q01DX009 (ip), vehicle: saline with Tween-80 99 % of control | [17] 96 % of control | [18] 96 % of control

O=C(O)C12CCCC(CCC1)C2=O
inactive: dose: 75.0 mg/kg/injection, schedule: Q01DX001 (ip), vehicle: saline 100 % of control | dose: 150.0 mg/kg/injection, schedule: Q01DX001 (ip), vehicle: saline 102 % of control | dose: 300.0 mg/kg/injection, schedule: Q01DX001 (ip), vehicle: saline 100 % of control

O=C(NC(CS(=O)(=O)O)C(=O)O)OCc1ccccc1 (stereo not given)
inactive: dose: 100.0 mg/kg/injection, schedule: Q01DX001 (ip), vehicle: Klucel (hydroxypropylcellulose) (HPC) 93 % of control | [22] 93 % of control | dose: 200.0 mg/kg/injection, schedule: Q01DX001 (ip), vehicle: Klucel (hydroxypropylcellulose) (HPC) 97 % of control | [23] 95 % of control | dose: 400.0 mg/kg/injection, schedule: Q01DX001 (ip), vehicle: Klucel (hydroxypropylcellulose) (HPC) 91 % of control

Clc1ccc(N=NNc2ccc(Cl)cc2)cc1
inactive: [24] 91 % of control | [14] 96 % of control | [25] 92 % of control | [15] 105 % of control | [26] 92 % of control | [16] 92 % of control

[N-]=[N+]=C1C(C(=O)c2ccccc2)=NN=C1c1ccccc1
inactive: dose: 50.0 mg/kg/injection, schedule: Q04DX003 (ip), vehicle: Klucel (hydroxypropylcellulose) (HPC) 97 % of control | [22] 104 % of control | [23] 108 % of control

CCc1c(Nc2ccccc2C)nc(N)[nH]c1=O
inactive: dose: 100.0 mg/kg/injection, schedule: Q01DX Z (ip), vehicle: methylcellulose (MC) 100 % of control | dose: 200.0 mg/kg/injection, schedule: Q01DX Z (ip), vehicle: methylcellulose (MC) 104 % of control

CC(C)(C)CC(C)(C)N=C=S
inactive: [18] 100 % of control | [19] 94 % of control | [24] 96 % of control and 97 % of control

COc1ccc(COC(=O)Nc2ccccc2)cc1
inactive: dose: 75.0 mg/kg/injection, schedule: Q01DX001 (ip), vehicle: carboxymethylcellulose (CMC) 101 % of control | dose: 150.0 mg/kg/injection, schedule: Q01DX001 (ip), vehicle: carboxymethylcellulose (CMC) 98 % of control
